Values quoted from earlier work as cited in patent US20070160648A1, “Methods for treating otic disorders” (pSivida Inc., priority 2002, published 2007).

In the case of `[H]/N=C(/N)N[C@H]1[C@H](O)[C@@H](O)[C@H](O[C@@H]2O[C@@H](C)[C@](O)(C=O)[C@H]2O[C@@H]2O[C@@H](CO)[C@H](O)[C@@H](O)[C@@H]2NC)[C@@H](N/C(N)=N\[H])[C@@H]1O` [streptomycin], the “patients displaying some vestibular impairment” value (one gram of streptomycin daily for 60 to 120 days) is listed as 25% and the “incidence of vestibular impairment” value (two grams per day) is listed as 75%.
